Test results taken from US8119362B2, “Method of screening for compounds that can be used for the treatment of respiratory conditions” (Centre National de la Recherche Scientifique—Cnrs, priority 2007, dated 2012).

Target: T1, human TASK-2 channel (Homo sapiens, UniProt O95279)
T1 construct: expressed in transfected cells; host or cells: HEK cells (Human Embryonic Kidney cells)
T1 sequence (O95279 1-499): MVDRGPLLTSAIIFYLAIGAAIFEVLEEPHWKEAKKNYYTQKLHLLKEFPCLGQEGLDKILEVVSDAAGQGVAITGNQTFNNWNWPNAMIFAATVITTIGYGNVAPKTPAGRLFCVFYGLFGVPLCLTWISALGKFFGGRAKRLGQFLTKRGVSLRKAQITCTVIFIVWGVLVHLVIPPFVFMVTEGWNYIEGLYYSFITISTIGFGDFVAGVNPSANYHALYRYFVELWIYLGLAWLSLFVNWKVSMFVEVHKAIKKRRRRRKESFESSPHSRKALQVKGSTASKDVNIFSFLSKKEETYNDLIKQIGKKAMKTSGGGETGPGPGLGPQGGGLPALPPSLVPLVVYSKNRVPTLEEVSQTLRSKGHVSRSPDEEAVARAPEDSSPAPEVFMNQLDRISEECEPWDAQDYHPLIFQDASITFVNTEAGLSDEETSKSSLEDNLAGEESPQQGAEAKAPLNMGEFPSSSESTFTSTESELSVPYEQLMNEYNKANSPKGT
Test: Patch-clamp (whole cell) recording of TASK-2 current in transfected HEK cells
Assay type: cell-based
Details: Doxapram at 0.9 mM in the external bath; HEK cells transfected with human TASK-2 (pIRES-CD8-hTASK2); voltage jumps; FIG. 4
Protocol: The following screening is used. HEK cells (Human Embryonic Kidney cells) are transfected with a plasmid containing complementary DNA from the gene of the human TASK-2 channel (pIRES-CD8-hTASK2) by the lipofectamine method. After 24 hours of culture, the TASK-2 currents are recorded using the voltage-clamp method (patch-clamp in whole cell configuration). The currents are activated by jumps in voltage from a rest potential at […] to variable values ranging from −80 to +45 mV.
The currents are recorded in whole cell configuration using an EPC-10 amplifier (HEKA). The <> pipette contains a solution of 95 K-gluconate, 30 mM KCl, 4.8 mM Na2HPO4, 1.2 mM NaH2PO4, 5 mM glucose, 2.38 mM MgCl2, 0.726 mM CaCl2, 1 mM EGTA, 3 mM ATP, pH 7.2. The external solution is a RINGER solution: 145 mM NaCl, 0.4 mM KH2PO4, 1.6 mM K2HPO4, 5 mM glucose, 1 mM MgCl2, 1.3 mM CaCl2, 5 mM HEPES, pH 7.4.
Different drugs may be applied at different concentrations by perfusion of the external bath and their effects are evaluated by the change in the currents compared with the control conditions.

## CCN1CC(CCN2CCOCC2)C(c2ccccc2)(c2ccccc2)C1=O (stereo not shown) [Doxapram]
  reduction of the TASK-2 current: 25%
